Reference: patent publication US8791140B2, “Crystalline forms of 6-[2-(methylcarbamoyl)phenylsulfanyl]-3-E-[2-(pyridin-2-yl)ethenyondazole suitable for the treatment of abnormal cell growth in mammals” (Pfizer Inc., priority 2007, dated 2014)

settings: solid, 1X ICH Option 1 light exposure, Atlas Suntest XLS+ light box, 320 nm cutoff filter
Description: A photochemical comparative study of Form XLI, Form XXV, and Form IV was performed.
Approximately 50 mg of each form was placed in 20 ml glass vials. The sample depth was <3 mm. The vials were covered with a quartz glass dish and placed in an Atlas Suntest XLS+ light box equipped with a 320 nm cutoff filter. […] The samples were exposed to artificial light equivalent to the International Conference on Harmonization (ICH) Guidelines for Photostability Testing of New Drug Substances, Option 1 exposure.

Q: With CNC(=O)c1ccccc1Sc1ccc2c(/C=C/c3ccccn3)n[nH]c2c1 [Form IV, 6-[2-(methylcarbamoyl)phenylsulfanyl]-3-E-[2-(pyridin-2-yl)ethenyl]indazole] as the compound, how does the “Potency (wt/wt %) after light exposure” value read?
A: 34%

Q: Which “Potency (wt/wt %) after light exposure” value does the source give for CNC(=O)c1ccccc1Sc1ccc2c(/C=C/c3ccccn3)n[nH]c2c1 [Form XXV, 6-[2-(methylcarbamoyl)phenylsulfanyl]-3-E-[2-(pyridin-2-yl)ethenyl]indazole] here?
A: 100%

Q: With CNC(=O)c1ccccc1Sc1ccc2c(/C=C/c3ccccn3)n[nH]c2c1 [Form XLI, 6-[2-(methylcarbamoyl)phenylsulfanyl]-3-E-[2-(pyridin-2-yl)ethenyl]indazole] as the compound, how does the “Potency (wt/wt %) after light exposure” value read?
A: 89%
